ChEMBL document CHEMBL1140165, “Rotationally constrained 2,4-diamino-5,6-disubstituted pyrimidines: a new class of histamine H4 receptor antagonists with improved druglikeness and in vivo efficacy in pain and inflammation models” (J Med Chem, 2008)
Active and inactive are the calls of the source. The rule behind the calls is not given here.

Key:
[1] = Half life in mouse at 2.5 mg/kg, iv; format: ADME, organism-based; design: dose 2.5 mg/kg, route intravenous; settings: in vivo
[2] = tested on: BMMC; assay: Blockade of histamine-induced morphological changes in BALB/c mouse BMMC by flow cytometry; format: functional, cell-based
[3] = tested on: Liver microsomes; assay: Metabolic stability in human liver microsomes; format: ADME, Microsome
[4] = Selectivity ratio of Ki for human histamine H4 receptor to Ki for histamine H2 receptor
[5] = tested on: Liver microsomes; assay: Metabolic stability in rat liver microsomes; format: ADME, Microsome
[6] = Selectivity ratio of Ki for human histamine H4 receptor to Ki for dopamine D2 receptor
[7] = Ratio of drug level in brain to plasma in rat at 10 mg/kg, iv after 30 mins; format: ADME, organism-based; design: dose 10 mg/kg, route intravenous
[8] = Selectivity ratio of Ki for human histamine H4 receptor to Ki for 5HT2A receptor
[9] = Blood clearance in rat at 10 mg/kg, iv; format: ADME, organism-based; design: dose 10 mg/kg, route intravenous; settings: whole blood
[10] = target: Cytochrome P450 3A4 (Homo sapiens, UniProt P08684); assay: Inhibition of CYP3A4 upto 10 uM; format: ADME
Chain of Cytochrome P450 3A4 (P08684 whole entry): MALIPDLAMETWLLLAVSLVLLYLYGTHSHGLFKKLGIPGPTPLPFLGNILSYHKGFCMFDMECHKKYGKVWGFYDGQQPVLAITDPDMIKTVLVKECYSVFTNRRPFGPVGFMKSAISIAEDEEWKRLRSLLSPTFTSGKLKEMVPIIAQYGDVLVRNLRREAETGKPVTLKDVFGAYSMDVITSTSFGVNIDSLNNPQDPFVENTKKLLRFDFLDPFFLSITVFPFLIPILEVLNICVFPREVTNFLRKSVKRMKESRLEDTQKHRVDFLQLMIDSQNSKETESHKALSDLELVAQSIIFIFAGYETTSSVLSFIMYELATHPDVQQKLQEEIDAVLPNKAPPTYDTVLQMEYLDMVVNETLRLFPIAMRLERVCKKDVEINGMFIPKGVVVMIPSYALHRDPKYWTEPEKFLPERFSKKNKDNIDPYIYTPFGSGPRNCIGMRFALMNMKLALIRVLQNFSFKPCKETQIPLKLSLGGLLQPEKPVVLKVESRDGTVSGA

[11] = Protein binding in human; format: ADME, organism-based; settings: in vivo, read-out: PB (converted)
[12] = Selectivity ratio of Ki for human histamine H4 receptor to Ki for histamine H1 receptor
[13] = tested on: Mus musculus; assay: Inhibition of clobenpropit-induced itching in ip dosed CD1/ICR mouse assessed as blockade of scratching in hind paw for 25 mins pretreated 30 mins before clobenpropit challenge; format: functional
[14] = Selectivity ratio of Ki for human histamine H4 receptor to Ki for 5HT1D receptor
[15] = Half life in rat at 10 mg/kg, iv; format: ADME, organism-based; design: dose 10 mg/kg, route intravenous; settings: in vivo
[16] = Selectivity ratio of Ki for human histamine H4 receptor to Ki for 5HT1A receptor
[17] = target: Cytochrome P450 2D6 (Homo sapiens, UniProt P10635); assay: Inhibition of CYP2D6 upto 10 uM; format: ADME
Chain of Cytochrome P450 2D6 (P10635 whole entry): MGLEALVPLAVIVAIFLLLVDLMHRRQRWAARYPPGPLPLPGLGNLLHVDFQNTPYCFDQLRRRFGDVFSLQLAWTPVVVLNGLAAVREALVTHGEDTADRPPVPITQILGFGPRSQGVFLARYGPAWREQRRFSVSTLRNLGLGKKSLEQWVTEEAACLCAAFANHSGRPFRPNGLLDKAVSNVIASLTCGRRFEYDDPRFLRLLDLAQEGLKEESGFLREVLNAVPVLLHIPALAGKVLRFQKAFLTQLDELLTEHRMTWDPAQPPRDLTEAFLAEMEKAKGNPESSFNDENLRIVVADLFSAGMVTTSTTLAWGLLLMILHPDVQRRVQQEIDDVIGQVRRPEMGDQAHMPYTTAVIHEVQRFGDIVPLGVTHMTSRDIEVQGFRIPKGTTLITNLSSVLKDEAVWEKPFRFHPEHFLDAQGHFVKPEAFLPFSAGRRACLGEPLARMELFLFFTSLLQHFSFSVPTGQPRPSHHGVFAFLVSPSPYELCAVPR

[18] = Terminal volume of distribution in rat at 10 mg/kg, iv; format: ADME, organism-based; design: dose 10 mg/kg, route intravenous; settings: in vivo, read-out: Vbeta
[19] = species: Homo sapiens; assay: Selectivity ratio of Ki for human histamine H4 receptor to Ki for human histamine H3 receptor
[20] = tested on: Rattus norvegicus; assay: Antinociceptive efficacy in ip dosed spinal nerve ligated Sprague-Dawley rat assessed as reduction of neuropathic pain in paw; format: functional
[21] = Protein binding in rat; format: ADME, organism-based; settings: in vivo, read-out: PB (converted)
[22] = target: Cytochrome P450 2C9 (Homo sapiens, UniProt P11712); assay: Inhibition of CYP2C9 upto 10 uM; format: ADME
Chain of Cytochrome P450 2C9 (P11712 whole entry): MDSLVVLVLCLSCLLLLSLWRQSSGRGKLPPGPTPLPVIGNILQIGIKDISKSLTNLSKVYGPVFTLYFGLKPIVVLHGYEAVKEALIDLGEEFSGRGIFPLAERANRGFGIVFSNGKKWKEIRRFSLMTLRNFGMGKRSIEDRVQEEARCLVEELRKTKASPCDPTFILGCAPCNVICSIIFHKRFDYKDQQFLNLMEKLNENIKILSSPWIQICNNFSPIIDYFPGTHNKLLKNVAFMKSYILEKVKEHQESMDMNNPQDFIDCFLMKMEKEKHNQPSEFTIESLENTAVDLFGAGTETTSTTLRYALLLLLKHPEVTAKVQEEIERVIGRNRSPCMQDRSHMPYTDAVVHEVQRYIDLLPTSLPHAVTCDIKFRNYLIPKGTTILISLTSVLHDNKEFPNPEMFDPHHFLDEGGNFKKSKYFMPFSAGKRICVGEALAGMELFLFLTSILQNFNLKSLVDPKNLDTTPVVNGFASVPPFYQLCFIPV

[23] = tested on: Mus musculus; assay: Antiinflammatory activity against ip dosed BALB/c mouse assessed as inhibition of zymosan-induced peritonitis after 2 hrs pretreated 30 mins before zymosan challenge; format: functional
[24] = target: Histamine H4 receptor (Rattus norvegicus) (UniProt Q91ZY1); assay: Antagonist activity at rat histamine H4 receptor expressed in HEK293 cells assessed as inhibition of histamine-induced intracellular calcium elevation by FLIPR assay relative to histamine; format: functional, cell-based
Chain of Histamine H4 receptor (Rattus norvegicus) (Q91ZY1 whole entry): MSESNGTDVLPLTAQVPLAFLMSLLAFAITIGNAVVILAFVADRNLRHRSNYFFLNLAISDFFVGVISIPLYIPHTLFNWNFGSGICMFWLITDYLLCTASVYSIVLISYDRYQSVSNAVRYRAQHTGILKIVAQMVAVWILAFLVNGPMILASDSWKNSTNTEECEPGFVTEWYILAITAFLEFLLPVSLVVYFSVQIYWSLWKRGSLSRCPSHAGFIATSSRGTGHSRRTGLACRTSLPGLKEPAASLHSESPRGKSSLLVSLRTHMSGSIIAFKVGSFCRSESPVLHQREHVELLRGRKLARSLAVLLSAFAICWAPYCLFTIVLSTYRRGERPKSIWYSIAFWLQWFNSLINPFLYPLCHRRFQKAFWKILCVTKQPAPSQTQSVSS

[25] = Selectivity ratio of Ki for human histamine H4 receptor to Ki for adrenergic alpha1 receptor
[26] = Metabolic stability in mouse liver microsomes; format: ADME, Microsome
[27] = Fractional bioavailability in rat at 10 mg/kg, iv and 10 mg/kg, po; format: ADME, organism-based; settings: in vivo
[28] = AUC (0 to infinity) in mouse at 20 mg/kg, sc; format: ADME, organism-based; design: time infinity, dose 20 mg/kg, route subcutaneous; settings: plasma
[29] = Half life in mouse at 5 mg/kg, iv; format: ADME, organism-based; design: dose 5 mg/kg, route intravenous; settings: in vivo
[30] = target: T1, Histamine H4 receptor (Mus musculus, UniProt Q91ZY2); assay: Antagonist activity at mouse histamine H4 receptor expressed in HEK293 cells assessed as inhibition of histamine-induced intracellular calcium elevation by FLIPR assay; format: functional, cell-based
T1 sequence (Q91ZY2 whole entry): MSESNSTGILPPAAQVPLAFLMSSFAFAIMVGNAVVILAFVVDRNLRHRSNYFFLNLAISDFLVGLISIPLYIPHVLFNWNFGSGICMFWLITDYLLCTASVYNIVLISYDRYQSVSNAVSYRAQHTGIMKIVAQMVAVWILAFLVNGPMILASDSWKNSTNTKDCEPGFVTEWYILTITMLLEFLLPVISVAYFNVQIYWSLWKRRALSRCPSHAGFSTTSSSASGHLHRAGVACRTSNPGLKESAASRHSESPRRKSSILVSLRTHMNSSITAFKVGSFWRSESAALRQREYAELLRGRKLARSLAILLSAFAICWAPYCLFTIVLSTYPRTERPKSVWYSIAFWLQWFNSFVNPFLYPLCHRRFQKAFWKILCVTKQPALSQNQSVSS

[31] = Tmax in mouse at 5 mg/kg, iv; format: ADME, organism-based; design: dose 5 mg/kg, route intravenous; settings: in vivo
[32] = Cmax in mouse at 5 mg/kg, iv; format: ADME, organism-based; design: dose 5 mg/kg, route intravenous; settings: in vivo
[33] = target: T2, Histamine H4 receptor (Homo sapiens, UniProt Q9H3N8); settings: HEK293
T2 sequence (Q9H3N8 whole entry): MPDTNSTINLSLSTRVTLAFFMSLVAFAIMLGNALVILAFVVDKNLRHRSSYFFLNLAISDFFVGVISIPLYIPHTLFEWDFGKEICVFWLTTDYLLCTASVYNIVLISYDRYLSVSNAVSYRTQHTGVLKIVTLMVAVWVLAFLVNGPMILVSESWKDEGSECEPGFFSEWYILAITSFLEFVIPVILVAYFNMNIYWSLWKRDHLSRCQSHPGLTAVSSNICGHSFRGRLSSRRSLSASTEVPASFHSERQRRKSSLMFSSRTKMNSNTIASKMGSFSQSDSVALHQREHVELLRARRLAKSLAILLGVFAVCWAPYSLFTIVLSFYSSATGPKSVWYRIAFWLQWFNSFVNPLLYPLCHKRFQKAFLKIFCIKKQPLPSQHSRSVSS

[34] = AUC (0 to t) in mouse at 5 mg/kg, iv; format: ADME, organism-based; design: dose 5 mg/kg, route intravenous; settings: plasma
[35] = Oral bioavailability in mouse at 20 mg/kg, sc; format: ADME, organism-based; settings: in vivo, subcutaneous
[36] = tested on: Mus musculus; assay: (§1) Plasma clearance in mouse at 5 mg/kg, iv; format: ADME, organism-based; design: dose 5 mg/kg, route intravenous; settings: in vivo
[37] = Cmax in mouse at 20 mg/kg, sc; format: ADME, organism-based; design: dose 20 mg/kg, route subcutaneous; settings: in vivo
[38] = AUC (0 to t) in mouse at 20 mg/kg, sc; format: ADME, organism-based; design: dose 20 mg/kg, route subcutaneous; settings: plasma
[39] = target: T2, Histamine H4 receptor; assay: Displacement of [3H]histamine from human histamine H4 receptor expressed in HEK293 cells; format: cell-based
[40] = Tmax in mouse at 20 mg/kg, sc; format: ADME, organism-based; design: dose 20 mg/kg, route subcutaneous; settings: in vivo
[41] = target: T3, Histamine H4 receptor (Rattus norvegicus, UniProt Q91ZY1); assay: Displacement of [3H]histamine from rat histamine H4 receptor expressed in HEK293 cells; format: cell-based
T3 sequence (Q91ZY1 whole entry): as the sequence (Q91ZY1 whole entry) above

[42] = AUC (0 to infinity) in mouse at 5 mg/kg, iv; format: ADME, organism-based; design: time infinity, dose 5 mg/kg, route intravenous; settings: plasma
[43] = Half life in mouse at 20 mg/kg, sc; format: ADME, organism-based; design: dose 20 mg/kg, route subcutaneous; settings: in vivo
[44] = target: T3, Histamine H4 receptor; assay: Antagonist activity at rat histamine H4 receptor expressed in HEK293 cells assessed as inhibition of histamine-induced intracellular calcium elevation by FLIPR assay; format: functional, cell-based
[45] = target: Histamine H4 receptor (Mus musculus) (UniProt Q91ZY2); assay: Antagonist activity at mouse histamine H4 receptor expressed in HEK293 cells assessed as inhibition of histamine-induced intracellular calcium elevation by FLIPR assay relative to histamine; format: functional, cell-based
[46] = Fractional bioavailability in rat at 5 mg/kg, iv and 5 mg/kg, po; format: ADME, organism-based; settings: in vivo
[47] = Terminal volume of distribution in mouse at 5 mg/kg, iv; format: ADME, organism-based; design: dose 5 mg/kg, route intravenous; settings: in vivo, read-out: Vbeta
[48] = as §1; format: ADME, organism-based; design: dose 5 mg/kg, route intravenous; settings: plasma
[49] = Blood clearance in mouse at 5 mg/kg, iv; format: ADME, organism-based; design: dose 5 mg/kg, route intravenous; settings: whole blood

Row | SMILES | Activity [2] | Stability [3] [pmol/min/mg] | Ratio Ki [4] | Stability [5] [pmol/min/mg] | Ratio Ki [6] | Kp at 0.5 h [7] | Ratio Ki [8] | clearance [9] [mL/min/kg] | Activity [10] | fraction unbound [11] | Ratio Ki [12] | ED50 [13] [µmol/kg] | Ratio Ki [14] | half-life [15] [min] | Activity [17] | fraction unbound [21] | Activity [22] | Stability [26] [pmol/min/mg] | half-life [29] [min] | pKb [33] | also measured
1 | CN1CCN(c2cc(-c3ccc(C#N)cc3)nc(N)n2)CC1 | Active | 25.9 | > 260 | 94.5 | > 140 | 20 | 120 | 172 | Not Active | 0.65 | > 170 | 25 | 3.5 | 24 | Not Active | 0.62 | Not Active | 43.1 |  |  | half-life [1]: 12 min; Ratio Ki [16]: 1.2; Vd [18]: 7.1 L/kg; Ratio Ki [19]: 30; ED50 [20]: 115 µmol/kg; ED50 [23]: 66 µmol/kg; Efficacy [24]: 64%; Ratio Ki [25]: 330; bioavailability [27]: 31%
2 | O=C(c1cc2cc(Cl)ccc2[nH]1)N1CCNCC1 |  | 26.6 |  | 61.4 |  |  |  |  | Not Active | 0.42 |  |  |  |  | Not Active | 0.35 | Not Active | 31.6 | 97.8 | 7.74 | AUC(0-inf) [28]: 11.8 µM·h; EC50 [30]: 17.8 nM; Tmax [31]: 30 min; Cmax [32]: 1120 nM; AUC(0-t) [34]: 3.03 µM·h; bioavailability [35]: 0%; Activity [36]: Not Active; Cmax [37]: 2000 nM; AUC(0-t) [38]: 11.8 µM·h; Ki ([39]; read-out: pKi (converted)): 25.7 nM; Tmax [40]: 120 min; Ki [41]: 3.98 nM; AUC(0-inf) [42]: 3.04 µM·h; half-life [43]: 51.6 min; EC50 [44]: 30.9 nM
3 | N#Cc1ccc(-c2cc(N3CCNCC3)nc(N)n2)cc1 |  | 6.2 |  | 26.9 |  |  |  |  | Not Active | 0.93 |  |  |  |  | Not Active | 0.96 | Not Active | 23.2 |  | 8.08 | Efficacy [45]: 54%
4 | CN1CCN(C(=O)c2cc3cc(Cl)ccc3[nH]2)CC1 [JNJ-7777120] | Active | 19 |  | 179 |  |  |  |  | Not Active | 0.23 |  |  |  |  | Not Active | 0.28 | Not Active | 143 | 22.8 |  | AUC(0-inf) [28]: 2.79 µM·h; bioavailability [46]: 24.1%; Vd [47]: 11 L/kg; Tmax [31]: 6 min; Cmax [32]: 2220 nM; AUC(0-t) [34]: 0.9 µM·h; bioavailability [35]: 77.6%; clearance [48]: 334 mL/min/kg; Cmax [37]: 500 nM; AUC(0-t) [38]: 2.79 µM·h; ED50 [20]: 217 µmol/kg; Tmax [40]: 30 min; AUC(0-inf) [42]: 0.9 µM·h; half-life [43]: 58.2 min
5 | Nc1nc2c(c(N3CCNCC3)n1)CCCc1ccccc1-2 | Active | 14.5 | > 130 | 95.4 | > 140 | 2.1 | > 185 | 102 | Not Active | 0.56 | > 93 | > 72 | 17 | 132 | Not Active | 0.42 | Not Active | 14 | 294 | 7.13 | bioavailability [46]: 33%; clearance [49]: 378 mL/min/kg; Vd [47]: 88.9 L/kg; EC50 [30]: 18.2 nM; Ratio Ki [16]: 13; Vd [18]: 19.9 L/kg; Ratio Ki [19]: 52; Ki ([39]; read-out: Ki): 71 nM; ED50 [23]: 21 µmol/kg; Ratio Ki [25]: 110; Ki [41]: 7.59 nM; bioavailability [27]: 37%; EC50 [44]: 14.8 nM
